This note sets out measurements from publication PMC4084896 (PLoS ONE, 2014).

In general, fold induction refers to the signal under treatment as a multiple of the control signal. Read a low fold induction as little rise in signal.

Structures are written as SMILES.

In series [1] the target is T1, aryl hydrocarbon receptor AhR (Homo sapiens, UniProt P35869).
T1 construct: endogenous in cells; host or cells: AZ-AHR (stably transfected reporter line derived from HepG2)
T1 sequence (P35869 11-848): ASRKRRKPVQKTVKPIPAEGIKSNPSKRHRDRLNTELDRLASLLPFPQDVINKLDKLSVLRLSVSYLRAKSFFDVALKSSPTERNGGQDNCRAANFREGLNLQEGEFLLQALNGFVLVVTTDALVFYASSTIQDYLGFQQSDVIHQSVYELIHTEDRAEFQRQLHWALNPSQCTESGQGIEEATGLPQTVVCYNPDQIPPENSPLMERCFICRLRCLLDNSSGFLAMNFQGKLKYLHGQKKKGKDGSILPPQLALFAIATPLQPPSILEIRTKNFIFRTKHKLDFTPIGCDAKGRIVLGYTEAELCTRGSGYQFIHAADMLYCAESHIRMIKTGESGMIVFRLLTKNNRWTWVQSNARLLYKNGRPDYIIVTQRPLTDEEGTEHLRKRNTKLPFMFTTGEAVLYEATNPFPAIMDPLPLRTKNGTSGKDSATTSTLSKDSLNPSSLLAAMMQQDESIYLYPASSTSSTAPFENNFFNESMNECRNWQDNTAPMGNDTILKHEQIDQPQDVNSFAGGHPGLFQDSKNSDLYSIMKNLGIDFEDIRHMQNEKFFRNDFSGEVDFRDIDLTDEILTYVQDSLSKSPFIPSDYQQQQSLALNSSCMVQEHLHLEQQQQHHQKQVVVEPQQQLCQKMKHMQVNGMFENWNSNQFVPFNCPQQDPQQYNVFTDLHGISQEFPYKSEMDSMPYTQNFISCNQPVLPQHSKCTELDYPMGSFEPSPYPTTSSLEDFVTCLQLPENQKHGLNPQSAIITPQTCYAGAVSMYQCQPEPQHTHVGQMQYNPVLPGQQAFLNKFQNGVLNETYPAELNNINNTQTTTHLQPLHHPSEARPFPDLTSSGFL
Put plainly: AhR gene reporter assay in AZ-AHR cells, agonist mode. The class given is cell-based. To be noted: 5 nM TCDD, four passages. The text has this: A stably transfected gene reporter cell line AZ-AHR, derived from human hepatoma HepG2 cells transfected with a construct containing several AhR binding sites upstream of a luciferase reporter gene, was used for assessment of AhR transcriptional activity. A stably transfected gene reporter cell line AZ-GR, derived from human cervix carcinoma HeLa cells transfected with a construct containing several GR response elements upstream of a luciferase reporter gene, was used for assessment of GR transcriptional activity. Cells were incubated for 24 h with tested compounds and/or vehicle (DMSO; 0.1% v/v), in the presence or absence of TCDD (5 nM; AZ-AHR cells) or DEX (100 nM; AZ-GR cells). After the treatments, cells were lysed and luciferase activity was measured. In parallel, cell viability was determined by conventional MTT test.
Gene reporter assays were performed in two different experimental layouts. In agonist mode, cells were treated with increasing concentrations of tested compounds, and the half-maximal effective concentrations (EC50) were calculated.
(In a reporter assay the amount or activity of a reporter protein is the signal.)

The subject of a further series is CYP1A1 protein. The series can be described thus: CYP1A1 protein in primary human hepatocytes (western blot). The class given is cell-based. To be noted: cultures HH52, HH54, Hep220770, 48 h. The method, then: Cells were cultured in serum-free medium.
Total protein extracts were prepared from cells on 6-well plates. Cells were washed twice with ice-cold PBS and scraped into 1 ml of PBS. The suspension was centrifuged (4500 RPM/5 min/4°C) and the pellet was resuspended in 150 µl of ice-cold lysis buffer (150 mM NaCl; 10 mM Tris pH 7.2; 0.1% (w/v) SDS; anti-protease cocktail, 1% (v/v) Triton X-100; anti-phosphatase cocktail, 1% (v/v) sodium deoxycholate; 5 mM EDTA). The mixture was vortexed and incubated for 10 min on ice and then centrifuged (15000 RPM/13 min/4°C). Supernatant was collected and the protein content was determined by the Bradford reagent. SDS–PAGE gels (10%) were run on a BioRad apparatus according to the general procedure followed by the protein transfer onto PVDF membrane. The membrane was saturated with 5% non-fat dried milk for 1 h at room temperature. Blots were probed with primary antibodies against CYP1A1 (goat polyclonal, sc-9828, G-18, dilution 1∶500), CYP1A2 (mouse monoclonal, sc-374228, G-4, dilution 1∶2000), actin (goat polyclonal; sc-1616, 1–19, dilution 1∶2000), all purchased from Santa Cruz Biotechnology (Santa Cruz, CA, USA). Chemiluminescent detection was performed using horseradish peroxidase-conjugated secondary antibodies (Santa Cruz Biotechnology) and Western blotting Luminol kit (Santa Cruz Biotechnology).

The subject of series [2] is CYP1A1 mRNA. The series can be described thus: in vitro. Conditions: human, 24 h. The text has this: (§1) Primary human hepatocytes used in this study were obtained from two sources: (i) from multiorgan donors LH52 (female; 60 years) and LH54 (person), when: a) Tissue acquisition protocol was in accordance with the requirements issued by “Ethical Committee of the Faculty Hospital Olomouc, Czech Republic” and with Transplantation law #285/2002 Sb., b) “Ethical Committee of the Faculty Hospital Olomouc, Czech Republic” approved the study and the use of primary human hepatocytes for research presented in the current paper., c) The consent from the next of kin of the donor was waived by “Ethical Committee of the Faculty Hospital Olomouc, Czech Republic”; (ii) long-term human hepatocytes in monolayer Batch HEP220770 (person), Batch HEP220774 (person) (purchased from Biopredic International, Rennes, France). Cells were cultured in serum-free medium. Cultures were maintained at 37°C and 5% CO2 in a humidified incubator.
(§2) Total RNA was isolated using TRI Reagent (Molecular Research Center, Cincinnati, OH, USA). cDNA was synthesized from 1000 ng of total RNA using M-MLV Reverse Transcriptase (Finnzymes, Espoo, Finland) at 42°C for 60 min in the presence of random hexamers (Takara, Shiga, Japan). qRT-PCR was carried out using LightCycler FastStart DNA MasterPLUS SYBR Green I (Roche Diagnostic Corporation, Prague, Czech Republic) on a Light Cycler 480 II apparatus (Roche Diagnostic Corporation). CYP1A1, CYP1A2, tyrosine aminotransferase (TAT) and GAPDH mRNAs were determined as described previously, [16]. Measurements were performed in triplicates. Gene expression was normalized to GAPDH as a housekeeping gene.

The subject of the next series is CYP1A2 mRNA. The series can be described thus: in vitro. To be noted: human, 24 h.
Description: as §1, §2

The subject of series [3] is CYP1A1 mRNA. To be noted: HepG2, TCDD 5 nM, 24 h, vs vehicle.
Series [4] relates to CYP1A1/1A2 catalytic activity (EROD). Put plainly: EROD assay in primary human hepatocytes. Conditions: culture Hep220774, TCDD 5 nM, 24 h. The class given is cell-based. The method, then:
Cells were treated for 24 h with tested compounds.
The cells were treated for 24 h with (+)-KET, (−)-KET and commercial rac-KET (1 µM, 30 µM, 50 µM), and with TCDD (5 nM) and vehicle (DMSO; 0.1% V/V). […] In the cytotoxicity assay, we found all forms of KET highly toxic against human hepatocytes at the concentration 50 µM.

[5] abbreviates: female, culture HH52, TCDD 5 nM.
Where [6] appears, read: female, culture Hep220770, TCDD 5 nM.

Regarding `Clc1cc2c(cc1Cl)Oc1cc(Cl)c(Cl)cc1O2` [TCDD, 2,3,7,8-tetrachlorodibenzo-p-dioxin], the “average induction of AhR-dependent luciferase activity” value in series [1] amounted to 435 fold. Besides, the “CYP1A1 protein induction (in words)” value in the series on CYP1A1 protein is listed as “drastic increase”. The fold induction in the series with CYP1A1 mRNA [2] (setting [5]) amounted to 53; with CYP1A1 mRNA [2] (setting [6]), 1840; in the series on CYP1A1 mRNA [2] (male, culture HH54, TCDD 5 nM), 101; in the series with CYP1A2 mRNA (setting [5]), 79; in the series on CYP1A2 mRNA (setting [6]), 219; in the series with CYP1A2 mRNA (male, culture HH54, TCDD 5 nM) it was 30. In addition, the “CYP1A1 mRNA induction” value in the series with CYP1A1 mRNA [3] is recorded as “approximately 500 fold”. In addition, the “induction of EROD activity” value in series [4] is “approximately 15 fold”.
